In the NIST ThermoML archive (doi:10.1021/je060411g):

Test: molar heat capacity at constant pressure
Details: 101.33 kPa

CCC(C)(C)O [2-methylbutan-2-ol]
Details | molar heat capacity at constant pressure [J/K/mol]
84.18 K, Crystal 3 | 59.96
84.41 K, Crystal 3 | 60.87
85.57 K, Crystal 3 | 65.73
86.62 K, Crystal 3 | 61.65
86.85 K, Crystal 3 | 61.55
87.94 K, Crystal 3 | 66.53
89.04 K, Crystal 3 | 62.98
89.26 K, Crystal 3 | 62.98
90.33 K, Crystal 3 | 68.13
91.86 K, Crystal 3 | 64.6
92.09 K, Crystal 3 | 64.56
93.17 K, Crystal 3 | 69.93
94.67 K, Crystal 3 | 66.27
94.91 K, Crystal 3 | 66.32
95.99 K, Crystal 3 | 71.8
97.49 K, Crystal 3 | 67.95
97.72 K, Crystal 3 | 68.07
98.82 K, Crystal 3 | 73.51
100.31 K, Crystal 3 | 70.24
100.54 K, Crystal 3 | 70.6
101.65 K, Crystal 3 | 75.44
103.12 K, Crystal 3 | 72.36
103.36 K, Crystal 3 | 72.54
104.48 K, Crystal 3 | 76.92
105.95 K, Crystal 3 | 73.89
106.18 K, Crystal 3 | 74.04
107.28 K, Crystal 3 | 78.03
108.74 K, Crystal 3 | 75.59
108.97 K, Crystal 3 | 75.81
110.03 K, Crystal 3 | 79.77
111.48 K, Crystal 3 | 77.47
111.7 K, Crystal 3 | 77.66
112.73 K, Crystal 3 | 81.52
114.17 K, Crystal 3 | 79.5
114.38 K, Crystal 3 | 79.61
115.38 K, Crystal 3 | 83.05
116.8 K, Crystal 3 | 81.46
117.02 K, Crystal 3 | 81.54
117.99 K, Crystal 3 | 84.42
119.4 K, Crystal 3 | 83.36
119.61 K, Crystal 3 | 83.37
120.55 K, Crystal 3 | 85.98
121.95 K, Crystal 3 | 85.58
122.15 K, Crystal 3 | 85.21
123.09 K, Crystal 3 | 87.29
124.47 K, Crystal 3 | 87.36
124.66 K, Crystal 3 | 87.39
125.59 K, Crystal 3 | 88.61
126.95 K, Crystal 3 | 89.35
127.13 K, Crystal 3 | 89.35
128.06 K, Crystal 3 | 90.2
129.39 K, Crystal 3 | 91.6
129.57 K, Crystal 3 | 91.64
130.5 K, Crystal 3 | 91.83
131.8 K, Crystal 3 | 96.05
131.98 K, Crystal 3 | 95.7
132.91 K, Crystal 3 | 94.22
134.19 K, Crystal 3 | 97.24
134.35 K, Crystal 3 | 97.17
135.29 K, Crystal 3 | 94.95
136.54 K, Crystal 3 | 98.99
136.7 K, Crystal 3 | 98.94
137.65 K, Crystal 3 | 96.49
138.86 K, Crystal 3 | 102.38
139.01 K, Crystal 3 | 102.19
139.98 K, Crystal 3 | 98.2
141.14 K, Crystal 3 | 106.32
141.29 K, Crystal 3 | 106.03
142.29 K, Crystal 3 | 99.86
143.38 K, Crystal 3 | 112.82
143.53 K, Crystal 3 | 110.46
144.58 K, Crystal 3 | 101.73
148.39 K, Crystal 2 | 89.39
148.47 K, Crystal 2 | 107.13
149.08 K, Crystal 2 | 105.46
150.5 K, Crystal 2 | 120.91
150.6 K, Crystal 2 | 120.49
151.3 K, Crystal 2 | 107.39
152.65 K, Crystal 2 | 120.48
152.74 K, Crystal 2 | 120.32
153.5 K, Crystal 2 | 109.42
154.78 K, Crystal 2 | 120.35
154.87 K, Crystal 2 | 120.25
155.66 K, Crystal 2 | 111.51
156.9 K, Crystal 2 | 120.17
156.98 K, Crystal 2 | 120.02
157.81 K, Crystal 2 | 113.29
159.02 K, Crystal 2 | 121.07
159.09 K, Crystal 2 | 120.89
159.95 K, Crystal 2 | 115.97
161.12 K, Crystal 2 | 121.73
161.19 K, Crystal 2 | 121.42
162.06 K, Crystal 2 | 118.39
163.23 K, Crystal 2 | 122.32
163.28 K, Crystal 2 | 121.93
164.16 K, Crystal 2 | 120.83
165.34 K, Crystal 2 | 123.02
